These results are taken from patent US20230271933A1, “HETEROCYCLIC IMMUNOMODULATOR” (Beijing Innocare Pharma Tech Co., Ltd., priority 2020, published 2023).

Series [1] has as its system NCI-H929 human myeloma cells. The experiment in a line: Inhibition of the proliferation of NCI-H929 cells (luminescent cell viability, CTG). It is filed as cell-based. The following applies: 6 days, CellTiter-Glo. The protocol: The effect of the compounds of the present invention on the proliferation of NCI-H929 human myeloma cells was evaluated by using a luminescent cell viability test experiment.
The compound was dissolved and diluted to 5 mM in DMSO, and then serially diluted 4-fold in DMSO to a minimum concentration of 0.31 μM. Each concentration was further diluted 50-fold with RPMI 1640 medium (Thermo Fisher, Cat. No. 72400-047). If the IC50 value of the compound was relatively low, the initial concentration of the compound could be lowered.
NCI-H929 cells (Nanjing Cobioer, Cat. No. CBP60243) were cultured in RPMI 1640 complete medium [containing 10% FBS (GIBCO, Cat. No. 10099-141) and 100 units/mL penicillin-streptomycin (Thermo Fisher, Cat. No. 15140122)]. Cells (15000 cells/mL) were plated in 90 μL of the complete medium in a 96-well plate and cultured overnight, and then 10 μL of the compound solution was added into each well. The cells were cultured in an incubator at 37° C. and 5% CO2 for 6 days. Then the cell culture plate was taken out and balanced to room temperature according to the instruction of the CellTilter-Glo (CTG) kit (Promega, Cat. No. G7572). 50 μL CTG reagent was added for complete lysis, the plate was placed at room temperature for 10 minutes, and the luminescence signal was read with a microplate reader (EnVision, Perkin Elmer). The group containing 0.2% DMSO medium was used as 0% inhibition. The XLfit software was used to plot the compound inhibition curve and calculate the inhibitory IC50 value.

In the next series the test system is IL-2. The series can be described thus: Stimulation of IL-2 secretion in anti-CD3-stimulated hPBMC (ELISA). It is filed as cell-based, human. Conditions: anti-CD3 antibody, 72 hours. Here is the method: (§1) The immunomodulatory function of the compound of the present invention was evaluated by detecting its effect on the secretion amount of TNFα and IL-2 in cells from the human peripheral blood mononuclear cells (hPBMC) by the enzyme linked immunosorbent assay (ELISA) method.
(§2) The peripheral blood of healthy volunteers was collected by using EDTA anticoagulant tubes, and diluted with phosphate buffered saline (PBS) containing 2% fetal bovine serum (Gibco, Cat. No. 10099-141) in an equal volume ratio. 30 mL of the resulting diluted sample was transferred into a Sepmate-50 centrifuge tube (Stemcell, Cat. No. 86450) to which 15 mL of a density-gradient centrifugation liquid (Sigma, Cat. No. 10771) had been added in advance, and centrifuged at room temperature at 1200×g for 10 minutes. The liquid containing PBMC in the upper layer was transferred to a new 50-mL centrifuge tube, and centrifuged at room temperature at 300×g for 8 minutes. The supernatant was discarded, and the resulting PBMC was resuspended to 5×10^6/mL by using RPMI 1640 medium (Gibco, Cat. No. 72400-047). 80 μL of the resulting suspension was added to each well in a 96-well plate.
(§3) Each concentration was further diluted 50-fold with RPMI 1640 medium. 10 μL of each compound solution was added into the cells in the above 96-well plate. The 96-well plate was placed in an incubator, and the cells were cultured at 37° C. and 5% CO2 for 1 hour. 10 μL of LPS (Sigma, Cat. No. L-2880) with a concentration of 100 ng/mL was added, and the cells were continuously cultured in the incubator at 37° C. and 5% CO2 overnight. Supernatants were collected for the detection of TNFα.
The above-mentioned 96-well plate can also be placed in an incubator, and the cells were cultured at 37° C. and 5% CO2 for 1 hour. 10 μL of anti-CD3 antibody (Thermo Fisher, Cat. No. 14-0037-82) with a concentration of 500 ng/mL was added, and the cells were continuously cultured in the incubator at 37° C. and 5% CO2 for 72 hours. Supernatants were collected for the detection of IL-2.
(§4) TNFα and IL-2 were detected respectively according to each instruction of the ELISA kits (R&D, Cat. No. DY210 and DY202, respectively) to obtain the OD450 values for each well. The group containing 0.2% DMSO medium was used as 0% inhibition or stimulation. The XLfit software was used to plot the compound inhibition or stimulation curve and calculate the corresponding IC50 or EC50.
(In general: ELISA stands for enzyme-linked immunosorbent assay.)

In another series the test system is TNFα. The series can be described thus: Inhibition of TNFα secretion in LPS-stimulated hPBMC (ELISA). Type of series: cell-based. Conditions: Homo sapiens, overnight, read-out: IC50 (nM) for the inhibition of the TNFa secretion. The protocol:
as §1, §2, §3, §4

A short description of series [2]: In vivo pharmacokinetic experiment in rats. The following applies: male Sprague-Dawley rats, n = 3; for F: PO 5 mpk vs IV 1 mpk; for clearance / Vd / AUC(0-t) / Cmax: rat, plasma; for clearance / Vd: 1 mg/kg, IV 1 mpk; for Vd: read-out: VSS; for AUC(0-t) / Cmax: 5 mg/kg, PO 5 mpk. The protocol: The compound to be tested was dissolved in 5% DMA+20% Solutol+75% Saline vehicle to prepare a 0.5 mg/mL administration solution.
2 mL/kg of the administration solution was administered through the intravenous injection (IV) at a dose of 1 mg/kg to three fed male Sprague-Dawley rats, respectively. Blood samples were collected at 0.083, 0.25, 0.5, 1, 2, 4, 8 and 24 hours after administration. 10 mL/kg of the administration solution was administered by gavage (PO) at a dose of 5 mg/kg to other three fed male Sprague-Dawley rats, respectively. Blood samples were collected at 0.25, 0.5, 1, 2, 4, 8 and 24 hours after administration.
The concentration of the compound to be tested in plasma was obtained with the LC-MS/MS quantitative analysis with an API-4500 mass spectrometer, and the limit of quantitation (LOQ) for the plasma was 1 ng/mL.

SMILES strings stand for the structures.

As to `CC(c1ccc(COc2cccc3c2CN([C@H]2CCC(=O)NC2=O)C3=O)cc1)N1CC2CC1CO2` (single isomer, unassigned) [Compound 18], the IC50 in series [1] (Homo sapiens, NCI-H929, 144 h) was 3.1 nM. In the series on IL-2 (Homo sapiens), this compound came in with a concentration giving a half-maximal response (EC50) of 11 nM.

For `C[C@@H](c1ccc(COc2cccc3c2CN(C2CCC(=O)NC2=O)C3=O)cc1)N1CCOCC1` (stereo partly drawn) [Compound 4, 3-(4-((4-((S)-1-morpholinoethyl)-benzyl)oxy)-1-oxoisoindolin-2-yl)piperidine-2,6-dione], the IC50 in series [1] (Homo sapiens, NCI-H929, 144 h) is 5 nM; with TNFα, 0.9 nM. For the same compound, in the series on IL-2 (Homo sapiens), the concentration for a half-maximal effect (EC50) came to 4.1 nM.

Take `C[C@H](c1ccc(COc2cccc3c2CN([C@H]2CCC(=O)NC2=O)C3=O)cc1)N1CCN(S(C)(=O)=O)CC1` [Compound 13, (S)-3-(4-((4-((R)-1-(4-(methylsulfonyl)piperazin-1-yl)ethyl)benzyl)oxy)-1-oxoisoindolin-2-yl)piperidine-2,6-dione]: the IC50 in series [1] (Homo sapiens, NCI-H929, 144 h) came out at 1.2 nM.

Consider `C[C@H](c1ccc(COc2cccc3c2CN([C@H]2CCC(=O)NC2=O)C3=O)cc1)N1CCN(c2ccncn2)CC1` [Compound 15, (S)-3-(1-oxo-4-((4-((R)-1-(4-(pyrimidin-4-yl)piperazin-1-yl)ethyl)benzyl)oxy)isoindolin-2-yl)piperidine-2,6-dione], for which the IC50 in series [1] (Homo sapiens, NCI-H929, 144 h) came to 0.4 nM; in the series with TNFα, 1.7 nM. Besides, in the series with IL-2 (Homo sapiens), the concentration for a half-maximal effect (EC50) came out at 19 nM.

As for `C[C@H](c1ccc(COc2cccc3c2CN([C@H]2CCC(=O)NC2=O)C3=O)cc1)N1CCN(c2ccc(F)cc2F)CC1` [Compound 17, (S)-3-(4-((4-((R)-1-(4-(2,4-difluorophenyl)piperazin-1-yl)ethyl)benzyl)oxy)-1-oxoisoindolin-2-yl)piperidine-2,6-dione], the 50% inhibitory concentration (IC50) in series [1] (Homo sapiens, NCI-H929, 144 h) came to 0.3 nM; in the series with TNFα, 3.7 nM.

Consider `CC(c1ccc(COc2cccc3c2CN(C2CCC(=O)NC2=O)C3=O)cc1)N1CCOCC1` (stereo not shown) [Compound 1, 3-(4-((4-(1-morpholinoethyl)benzyl)oxy)-1-oxoisoindolin-2-yl)piperidine-2,6-dione], for which the midpoint of inhibition in series [1] (Homo sapiens, NCI-H929, 144 h), the IC50, lay at 7.7 nM.

In series [1] (Homo sapiens, NCI-H929, 144 h), `C[C@H](c1ccc(COc2cccc3c2CN([C@H]2CCC(=O)NC2=O)C3=O)cc1)N1CCN(C(=O)C2CC2)CC1` [Compound 11, (S)-3-(4-((4-((R)-1-(4-(cyclopropanecarbonyl)piperazin-1-yl)ethyl)benzyl)oxy)-1-oxoisoindolin-2-yl)piperidine-2,6-dione] displayed an IC50 of 2.2 nM.

Take `N#CC(c1ccc(COc2cccc3c2CN([C@H]2CCC(=O)NC2=O)C3=O)cc1)N1CCOCC1` (stereo partly drawn) [Compound 10, 2-(4-(((2-((S)-2,6-dioxopiperidin-3-yl)-1-oxoisoindolin-4-yl)oxy)methyl)phenyl)-2-morpholinoacetonitrile]: the IC50 turned out to be 11 nM in series [1] (Homo sapiens, NCI-H929, 144 h) and 2.1 nM in the series on TNFα. For the same compound, the EC50 in the series on IL-2 (Homo sapiens) was found to be 46 nM.

For `CC(C)(c1ccc(COc2cccc3c2CN([C@H]2CCC(=O)NC2=O)C3=O)cc1)N1CCOCC1` [Compound 5, (S)-3-(4-((4-(2-morpholinopropan-2-yl)benzyl)oxy)-1-oxoisoindolin-2-yl)piperidine-2,6-dione], in series [1] (Homo sapiens, NCI-H929, 144 h), the half-maximal inhibitory concentration (IC50) was determined as 7.8 nM. In addition, in series [2], the F is reported as 4%, the clearance was 110 mL/min/kg, the Vd is 3.3 L/kg and the exposure AUC(0-t) was 8.8 ng·h/mL. Moreover, the peak concentration (Cmax) in series [2] came out at 1.6 ng/mL.

On to `O=C1CCC(N2Cc3c(OCc4ccc(C5(N6CCOCC6)CC5)cc4)cccc3C2=O)C(=O)N1` (stereo not shown) [Compound 2, 3-(4-((4-(1-morpholinocyclopropyl)benzyl)oxy)-1-oxoisoindolin-2-yl)piperidine-2,6-dione], for which the half-maximal inhibitory concentration (IC50) in series [1] (Homo sapiens, NCI-H929, 144 h) stood at 35 nM; with TNFα it was 7.8 nM. Besides, the half-maximal effective concentration (EC50) in the series on IL-2 (Homo sapiens) turned out to be 10 nM.

`C[C@H](c1ccc(COc2cccc3c2CN(C2CCC(=O)NC2=O)C3=O)cc1)N1CCOCC1` (stereo partly drawn) [Compound 3, 3-(4-((4-((R)-1-morpholinoethyl)benzyl)oxy)-1-oxoisoindolin-2-yl)piperidine-2,6-dione]: the midpoint of inhibition in series [1] (Homo sapiens, NCI-H929, 144 h), the IC50, lay at 7 nM. Besides, the IC50 in the series on TNFα is 1.1 nM. This compound also returned an EC50 in the series on IL-2 (Homo sapiens) of 8 nM. Further, in series [2], the F is given as 20%, the clearance came to 61 mL/min/kg, the Vd stood at 4.2 L/kg and the AUC(0-t) was found to be 270 ng·h/mL. The compound also came in with a peak concentration (Cmax) in series [2] of 105 ng/mL.

In series [1] (Homo sapiens, NCI-H929, 144 h), `N#Cc1ccc(N2CCN(C3(c4ccc(COc5cccc6c5CN([C@H]5CCC(=O)NC5=O)C6=O)cc4)CC3)CC2)c(F)c1` [Compound 9, (S)-4-(4-(1-(4-(((2-(2,6-dioxopiperidin-3-yl)-1-oxoisoindolin-4-yl)oxy)methyl)phenyl)-cyclopropyl)piperazin-1-yl)-3-fluorobenzonitrile] returned an IC50 of 1.1 nM.

In turn, `C[C@H](c1ccc(COc2cccc3c2CN([C@H]2CCC(=O)NC2=O)C3=O)cc1)N1CCN(c2ccncc2F)CC1` [Compound 20, (S)-3-(4-((4-((R)-1-(4-(3-fluoropyridin-4-yl)piperazin-1-yl)ethyl)benzyl)oxy)-1-oxoisoindolin-2-yl)piperidine-2,6-dione] registered an IC50 in series [1] (Homo sapiens, NCI-H929, 144 h) of 0.1 nM. Also, a half-maximal response in the series on IL-2 (Homo sapiens) (EC50) required 1.9 nM.

Consider `CC(c1ccc(COc2cccc3c2CN([C@H]2CCC(=O)NC2=O)C3=O)cc1)N1CC2CC1CO2` (single isomer, unassigned) [Compound 19], for which the IC50 in series [1] turned out to be 3.8 nM; in the series on TNFα, 0.8 nM. This compound displayed an EC50 in the series with IL-2 of 11 nM.

Compound `C[C@H](c1ccc(COc2cccc3c2CN([C@H]2CCC(=O)NC2=O)C3=O)cc1)N1CCN(C2CC2)CC1` [Compound 12, (S)-3-(4-((4-((R)-1-(4-cyclopropylpiperazin-1-yl)ethyl)benzyl)oxy)-1-oxoisoindolin-2-yl)piperidine-2,6-dione] returned an IC50 in series [1] (Homo sapiens, NCI-H929, 144 h) of 0.3 nM.

`C[C@H](c1ccc(COc2cccc3c2CN([C@H]2CCC(=O)NC2=O)C3=O)cc1)N1CCN(C)CC1` [Compound 14, (S)-3-(4-((4-((R)-1-(4-methylpiperazin-1-yl)ethyl)benzyl)oxy)-1-oxoisoindolin-2-yl)piperidine-2,6-dione] returned a concentration for half-maximal inhibition (IC50) in series [1] (Homo sapiens, NCI-H929, 144 h) of 1.4 nM.

`CC(C)(c1ccc(COc2cccc3c2CN([C@H]2CCC(=O)NC2=O)C3=O)cc1)N1CCN(c2ccc(C#N)cc2F)CC1` [Compound 8, (S)-4-(4-(2-(4-(((2-(2,6-dioxopiperidin-3-yl)-1-oxoisoindolin-4-yl)oxy)methyl)phenyl)-prop-2-yl)piperazin-1-yl)-3-fluorobenzonitrile] returned an IC50 in series [1] (Homo sapiens, NCI-H929, 144 h) of 0.5 nM. This compound also gave a concentration giving a half-maximal response (EC50) in the series with IL-2 (Homo sapiens) of 4 nM.

As usually defined, the IC50 is the concentration needed to halve the response being measured. The term EC50 denotes the midpoint of the concentration-response curve. A low value points to higher potency in that assay. As a reminder, the clearance is the volume of plasma or blood freed of the substance per unit of time. Read a low clearance as inefficient removal. For orientation: AUC(0-t) means the area under the concentration-time curve up to a stated or last time point. A high value points to more exposure. In general, Cmax refers to the maximum level reached in the sampled fluid or tissue.
